Here are results for seven compounds from publication PMC4140764 (PLoS Neglected Tropical Diseases, 2014).

Molecules are shown by their SMILES. Where two headings read alike, the source gives them in different places.

Series [1] has as its system HeLa cells expressing H3-pS10.
The subject of series [2] is tubulin / microtubule organization in HeLa cells. Format: cell-based, human.
Series [3] relates to RVFV strain MP12. It counts as cell-based, Rift Valley fever virus.
Series [4] can be described thus: in vitro. The note with it: human.
A further series has as its system EBOV (Zaire). The series is described as follows: microbe, parasite or virus in culture. Format: cell-based, Zaire ebolavirus.
A further series concerns LASV (Josiah). Nature of the series: microbe, parasite or virus in culture. Format: cell-based, Lassa virus. The settings on record: for EC50: Mammarenavirus lassaense, HeLa, 24 h.
The subject of another series is MARV (Ci67). The series is described as follows: microbe, parasite or virus in culture. Format: cell-based, Lake Victoria marburgvirus.
The subject of series [5] is RVFV strain MP12. The series is described as follows: microbe, parasite or virus in culture. Format: cell-based, Rift Valley fever virus. The note with it: for EC50: Rift Valley fever virus, HeLa, 24 h.
Series [6] concerns Golgi complex in HeLa-G cells. The series is described as follows: cells. It counts as cell-based, human. The settings on record: for EC50: Homo sapiens, 12 h, read-out: GC50 (effective concentration of compound that disrupts 50% of the Golgi complexes).
The test system of another series is VEEV (1CSH3). The series is described as follows: microbe, parasite or virus in culture. The settings on record: for EC50: Venezuelan equine encephalitis virus, HeLa, 20 h. Format: cell-based, Venezuelan equine encephalomyelitis virus.
Another series has as its system RVFV. The series is described as follows: microbe, parasite or virus in culture. Format: cell-based. The settings on record: Rift Valley fever virus, SAEC, 24 h.
The next series relates to RVFV RNA. Format: cell-based, Rift Valley fever virus.
Series [7] in a line: in vitro. The settings on record: human. This is another data set of the same source.
The mark [8] stands for this setting: Orthomarburgvirus marburgense, HeLa, 48 h.

`COC(=O)Nc1nc2ccc(C(=O)c3cccs3)cc2[nH]1` [nocodazole, reference compound]: the “number of cells expressing H3-pS10 (mitotic cells) vs mock-treated” value in [1] was “significant increase”. The “tubulin ridge value relative to BFA- or mock-treated cells” value in series [2] is on record as “approximately half”.

On to `Cl.N` [NH4Cl, reference compound], for which, in the series on RVFV strain MP12 [3], the “RVFV infection inhibition when added 2 h PI” value was “not at the later time point” and the “RVFV infection inhibition when added at early time points (−2 h or 0 h)” value is “inhibited RVFV infection”.

The compound `Cc1ccc(NC(=O)Nc2cc(NC(=O)c3ccc(F)cc3)ccc2N2CCCC2)c(Cl)c1` [F694-1532] showed a CC50 in the series “in vitro [4]” of 51.3 µM. The “reduction of N and Gn expression” value in the series with RVFV strain MP12 [3] is recorded as “significantly reduced”. Also, the “time of compound addition PI at which 50% of infection is rescued/recovered” value with RVFV strain MP12 [3] is given as 8 h. Also, the EC50 in the series with EBOV (Zaire) (Zaire ebolavirus, HeLa, 48 h) was found to be 118 µM; in the series with LASV (Josiah) it was 80.4 µM; in the series on MARV (Ci67) (setting [8]), 143 µM; in the series on RVFV strain MP12 [5], 20 µM; in series [6] it was 35.3 µM; in the series on VEEV (1CSH3), 15.2 µM. This compound also gave an EC50 with RVFV of 23.5 µM. In [6], the “%GNL (lowest % of Golgi number achievable at the compound's highest concentration)” value (“%GNL” for short) came out at 19.5%.

Turning to `COc1ccc(CN2C(=O)C(=O)c3cc(C)ccc32)cc1` [D011-2120], the CC50 in the series “in vitro [4]” turned out to be 98 µM. For the same compound, in the series with RVFV strain MP12 [3], the “reduction of N and Gn expression” value was roughly 10%; the “reduction of S-Gn (cell surface exposed Gn) expression” value is reported as “approximately 90%”; the “time of compound addition PI at which 50% of infection is rescued/recovered” value is greater than 10 h. Moreover, in the series on EBOV (Zaire), the “antiviral activity against EBOV in secondary screening (heat map)” value is “high activity”. In the series on EBOV (Zaire) (Zaire ebolavirus, HeLa, 48 h), this compound returned an EC50 of 54.1 µM. For the same compound, in the series with LASV (Josiah), the “antiviral activity against LASV in secondary screening (heat map)” value was “moderate activity” and the EC50 stood at 46.8 µM. In the series on MARV (Ci67), the “antiviral activity against MARV in secondary screening (heat map)” value is “high activity”. In the series on MARV (Ci67) (setting [8]), the EC50 was 87.1 µM. In addition, in [1], the “number of cells expressing H3-pS10 (mitotic cells) vs mock-treated” value is given as “significant increase”. Moreover, the “concentration above which compound was toxic to the cells” value in series [1] (human) is greater than 25 µM. Moreover, the “tubulin ridge value relative to BFA- or mock-treated cells” value in series [2] is listed as “approximately half”. Also, in the series on RVFV strain MP12 [5], the “antiviral activity against RVFV in secondary screening (heat map)” value is listed as “moderate activity” and the EC50 was found to be 61.5 µM. Besides, in series [6], the “%GNL” value turned out to be 16.4% and the EC50 was 38.2 µM. For the same compound, in the series with VEEV (1CSH3), the “antiviral activity against VEEV in secondary screening (heat map)” value is “high activity” and the EC50 worked out at 41.6 µM. This compound had an EC50 in the series with RVFV of 62.4 µM. Moreover, in the series on RVFV RNA, the “viral RNA accumulation in the supernatants” value came to 9% and the “viral RNA accumulation inside the cells” value is 75%.

On to `CC1(C(=O)NCc2ccccc2)Cn2c(cc3occc32)C(=O)N1Cc1ccc(Cl)cc1` (centres unmarked) [C795-0925], for which the CC50 in the series “in vitro [4]” is 111 µM; in the series “in vitro [7]”, 56.7 µM. The “reduction of N and Gn expression” value in the series with RVFV strain MP12 [3] is listed as “significantly reduced”. For the same compound, the “time of compound addition PI at which 50% of infection is rescued/recovered” value with RVFV strain MP12 [3] is recorded as 9 h. In addition, the “antiviral activity against EBOV in secondary screening (heat map)” value in the series with EBOV (Zaire) is “moderate antiviral activity”. In addition, the EC50 in the series with EBOV (Zaire) (Zaire ebolavirus, HeLa, 48 h) amounted to 46.6 µM; with LASV (Josiah), 81.4 µM; in the series with MARV (Ci67) (setting [8]), 57.4 µM; in the series on RVFV strain MP12 [5], 14.4 µM; in series [6], 36.9 µM; with VEEV (1CSH3), 10.2 µM. The compound also showed an EC50 in the series on RVFV of 12.3 µM. Also, the “antiviral activity against LASV in secondary screening (heat map)” value in the series with LASV (Josiah) is “moderate antiviral activity”. In the series on MARV (Ci67), the “antiviral activity against MARV in secondary screening (heat map)” value is “moderate antiviral activity”. In addition, in the series with RVFV strain MP12 [5], the “antiviral activity against RVFV in secondary screening (heat map)” value is “highest activity”. Also, in [6], the “%GNL” value is recorded as 63.4%. In addition, the “antiviral activity against VEEV in secondary screening (heat map)” value in the series on VEEV (1CSH3) is “highest activity”.

Take `NC(=O)c1ncn([C@@H]2O[C@H](CO)[C@@H](O)[C@H]2O)n1` [Ribavirin, ribavirin, reference compound]: the EC50 in the series with EBOV (Zaire) (Zaire ebolavirus, HeLa, 48 h) came out at 60.1 µM; in the series with LASV (Josiah), 6.8 µM; in the series with MARV (Ci67) (setting [8]) it was 82.2 µM; in the series on RVFV strain MP12 [5], 27.2 µM; in the series on VEEV (1CSH3) it was 75 µM; in the series on RVFV, 29.5 µM. In addition, the “%GNL” value in series [6] is given as 87.2%.

With `COc1ccccc1CNC(=O)C1c2c(n(C)c3ccccc23)SCC(=O)N1c1ccc(OC)c(OC)c1` (centres unmarked) [G202-0362], the “toxic effects on the HeLa cells” value with HeLa cells is listed as “no toxic effects”. Moreover, the “reduction of N and Gn expression” value with RVFV strain MP12 [3] is on record as roughly 10%. For the same compound, in the series with RVFV strain MP12 [3], the “reduction of S-Gn (cell surface exposed Gn) expression” value was “approximately 90%”. In addition, the “time of compound addition PI at which 50% of infection is rescued/recovered” value in the series with RVFV strain MP12 [3] was greater than 10 h. The EC50 in the series on EBOV (Zaire) is 16.1 µM; in the series on EBOV (Zaire) (Zaire ebolavirus, HeLa, 48 h), 16 µM; in the series with MARV (Ci67), 34.1 µM; with MARV (Ci67) (setting [8]), 34 µM; in the series with RVFV strain MP12 [5], 13.6 µM; in series [6] it was 23.7 µM. Moreover, the EC50 was found to be 48.9 µM in the series on VEEV (1CSH3) and 11.9 µM with RVFV. Moreover, the “effects on cell division in uninfected cells” value in series [1] is recorded as “no observable effects”. Besides, the “%GNL” value in series [6] amounted to 61.2%. Also, in the series on RVFV RNA, the “viral RNA accumulation in the supernatants” value is 28%. In addition, the “viral RNA accumulation inside the cells” value in the series on RVFV RNA was 95%.
